Source: patent US7732622B2, “Naphthalene derivatives” (Glaxo Group Limited, priority 2001, dated 2010)

Biological target: T1, human EP4 receptor (Homo sapiens, UniProt P35408)
T1 construct: expressed in transfected cells; host or cells: CHO cells infected with recombinant Semliki Forest Virus (SFV-1) particles; membranes prepared
Test: Human EP4 Scintillation Proximity Assay (radioligand binding)
Conditions: not given
Procedure: Quantification of radioligand binding by scintillation proximity assay (SPA) is a long-established principle. Briefly, the affinity of novel compounds for a receptor is assessed by the specific competition between known quantities of radiolabelled ligand and novel compound for that receptor. Increasing concentrations of novel compound reduce the amount of radiolabel that binds to the receptor. This gives rise to a diminishing scintillation signal from SPA beads coated with membranes that bear the receptor. The signal may be detected with a suitable scintillation counter and the data generated may be analysed with suitable curve-fitting software.
The human EP4 SPA assay (hereafter referred to as ‘the assay’) utilises membranes prepared from Chinese Hamster Ovary (CHO cells) infected with Semliki Forest Virus (SFV). Genetically engineered SFV-1 viral particles containing the genetic sequence of the human EP4 receptor were used to infect CHO cells resulting in expression of the receptor protein in cellular membranes. Cells washed free of media are homogenised in a pH-buffered medium containing peptidase inhibitors. A suitable buffer is of the following composition: 50 mM HEPES, 1 mM EDTA, 25 μg/ml bacitracin, 100 μM leupeptin, 1 mM PMSF, 2 μM Pepstatin A, pH adjusted to 7.4 with KOH. Following removal of cell debris by a low-speed centrifugation, a pellet of membranes is prepared by a high-speed (48000 g) centrifugation of the resulting supernatant. Membrane suspensions such as that described may be stored at −80° C. until used.
For assay, membranes expressing human EP4 receptors are diluted in a pH-buffered medium and mixed with SPA beads coated with a suitable substance to facilitate the adhesion of membranes to the beads. The concentrations of membrane protein and SPA beads chosen should result in SPA binding signal of at least 300 corrected counts per minute (CCPM) when tritiated radioligand at a concentration close to its Kd (affinity value) is combined with the mixture. Non-specific binding (nsb) may be determined by competition between the radiolabelled ligand and a saturating concentration of unlabelled ligand. In order to quantify the affinity of novel EP4 receptor ligands, compounds are diluted in a stepwise manner across the wells of a 96-well plate. Radioligand, novel compound, and unlabelled ligand are then added to a 96-well plate suitable for the measurement of SPA binding signals prior to the addition of bead/membrane mixture to initiate the binding reaction. Equilibrium may be achieved by incubation at room temperature for 120 minutes prior to scintillation counting. The data so generated may be analysed by means of a computerised curve-fitting routine in order to quantify the concentration of compound that displaces 50% of the specific radioligand binding (IC50). The affinity (pKi) of the novel compound may be calculated from the IC50 by application of the Cheng-Prusoff correction. Suitable reagents and protocols are: reaction buffer containing 50 mM HEPES, 10 mM MgCl2, pH adjusted to 7.4 with KOH; SPA beads coated with wheatgerm agglutinin; 1.25 nM [^3H]-prostaglandin E2 as radioligand; 10 μM prostaglandin E2 as unlabelled ligand; a three-fold dilution series of novel compound starting at 10 μM and ending at 0.3 nM is adequate.

T1 sequence (P35408 whole entry): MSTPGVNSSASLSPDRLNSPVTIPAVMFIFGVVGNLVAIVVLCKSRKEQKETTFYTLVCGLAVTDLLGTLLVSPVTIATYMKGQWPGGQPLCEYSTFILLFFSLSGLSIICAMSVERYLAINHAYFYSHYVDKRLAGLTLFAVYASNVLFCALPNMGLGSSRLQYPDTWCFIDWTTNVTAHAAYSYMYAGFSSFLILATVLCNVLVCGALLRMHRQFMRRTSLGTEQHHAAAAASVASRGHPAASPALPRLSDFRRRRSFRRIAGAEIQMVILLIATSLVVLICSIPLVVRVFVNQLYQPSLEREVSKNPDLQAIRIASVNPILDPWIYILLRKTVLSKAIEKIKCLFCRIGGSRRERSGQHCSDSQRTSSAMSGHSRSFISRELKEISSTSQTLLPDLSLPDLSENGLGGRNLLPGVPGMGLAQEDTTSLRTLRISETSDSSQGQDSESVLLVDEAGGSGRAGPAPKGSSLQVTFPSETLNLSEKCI

Ki, ≤ 1000 nM:
CCCOc1c2c(c(OCCC)c3ccccc13)C(=O)N(c1ccc(CC(=O)O)cc1)C2 [Example 5, [4-(4,9-Dipropoxy-1-oxo-1,3-dihydro-2H-benzo[f]isoindol-2-yl)phenyl]acetic acid]
CCOc1c2c(c(OCC)c3ccccc13)C(=O)N(c1ccc(CC(=O)O)cc1)C2=O [Example 12, [4-(4,9-Diethoxy-1,3-dioxo-1,3-dihydro-2H-benzo[f]isoindol-2-yl)phenyl]acetic acid]
CC(C)Oc1c2c(c(OC(C)C)c3ccccc13)C(=O)N(c1ccc(CC(=O)O)cc1)C2 [Example 4, [4-(4,9-Di-isopropoxy-1-oxo-1,3-dihydro-2H-benzo[f]isoindol-2-yl)phenyl]acetic acid]

Same assay, conditions: SPA, membranes of CHO cells expressing human EP4 receptor, 1.25 nM [3H]-prostaglandin E2 as radioligand; pKi from IC50 by Cheng-Prusoff correction; read-out: pKi at EP4 receptors (converted)

Ki, ≤ 1000 nM:
COc1c2c(c(OC)c3ccccc13)C(=O)N(c1ccc(CC(=O)O)cc1)C2 [Example 1, [4-(4,9-Dimethoxy-1-oxo-1,3-dihydro-2H-benzo[f]isoindol-2-yl)phenyl]acetic acid]
CC(C)Oc1c2c(c(OC(C)C)c3ccccc13)C(=O)N(c1ccc(CC(=O)O)cc1)C2=O [Example 13, [4-(4,9-Di-isopropoxy-1,3-dioxo-1,3-dihydro-2H-benzo[f]isoindol-2-yl)phenyl]acetic acid]
CCCOc1c2c(c(OCCC)c3ccccc13)C(=O)N(c1ccc(CC(=O)O)cc1)C2=O [Example 14, [4-(4,9-Dipropoxy-1,3-dioxo-1,3-dihydro-2H-benzo[f]isoindol-2-yl)phenyl]acetic acid]
CCOc1c2c(c(OC(C)C)c3ccccc13)C(=O)N(c1ccc(CC(=O)O)cc1)C2=O [Example 17, [4-(4-Ethoxy-9-isopropoxy-1,3-dioxo-1,3-dihydro-2H-benzo[f]isoindol-2-yl)phenyl]acetic acid]
